# Measured values published in patent US4959368A, “Therapeutic agent for neurological diseases” (Mitsui Petrochemical Industries Ltd., priority 1986, dated 1990).
# Legend:
# [1] = tested on: mouse neuroblastoma cell line neuro-2a; experiment: Activity on neuro-2a, cells with outgrown neurites; assay type: cell-based; settings: Table 3 Run No. 6, control 4.4 ± 0.9
# Outline: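 Mouse neuro-2a cells in DMEM with FCS exposed to compounds for 24 h (up to 6 concentrations, triplicate runs), glutaraldehyde-fixed and methylene blue-stained. Proportion of cells bearing a neurite at least twice the cell's long diameter counted microscopically over ≥200 cells.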
# mice = experiment: Acute toxicity, mouse; assay type: in vivo; settings: 24 hours
# Method: (§1) The acute toxicity of the compounds of the invention was examined by the following method.
# (§2) Male ddy-strain 5-week old mice and male Wistar-strain 8 week old rats, five per group, were used as experimental animals. Each of the compounds was dissolved in saline and administered perorally, and the toxicity of the compound was assessed 24 hours after the administration.
# Acute toxicity, rat = assay type: in vivo; settings: in vivo, po, read-out: Presumed LD50
# Method: as §1, §2
# rats = experiment: Acute toxicity, rat; assay type: in vivo; settings: 24 hours
# Method: as §1, §2
# [2] = tested on: human neuroblastoma cell line GOTO; experiment: Activity on neuroblastoma cell line GOTO (cell number, number and length of neurites); assay type: cell-based; settings: Table 1 Run No. 3; for Number of neurites/cell (mean ± S.D.): control 1.94 ± 0.69; for Number of cells: control 3.17; for Length of neurites (mean ± S.D.): control 45.13 ± 22.71
# Outline: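 GOTO cells were cultured 1–2 days at 37 °C, 5% CO2, then switched to serum-free RPMI/MEM (1:1) with compounds in PBS at various concentrations for 24 h. Living cells were counted by erythrosine exclusion (3–6 dishes); neurite number and length per cell were measured from photographs.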
# Acute toxicity, mouse = assay type: in vivo; settings: in vivo, po, Table 6, p.o., read-out: Presumed LD50
# Method: as §1, §2
# [3] = tested on: human neuroblastoma cell line GOTO; experiment: Activity on cell line GOTO (simple method); assay type: cell-based; settings: Table 2 GOTO Run No. 2; 10 μg/ml; control 8.4
# Method: (§3) The biological activities in vitro of the compounds of formula (I) on cells of the nervous system were tested. The cells tested were human neuroblastoma cell line GOTO [see Sekiguchi, M., Oota, T., Sakakibara, K., Inui, N. & Fujii, G., Japan. J. Exp. Med., 49, 67-83 (1979)], and neuroblastoma cell line NB-1 [see Miyake, S., Shimo, Y., Kitamura, T., Nojyo, Y., Nakamura, T., Imkashuku, S. and Abe, T., The Autonomic Nervous System, 10, 115-120 (1973)], and mouse neuroblastoma cell line neuro-2a (Dainippon Pharmaceutical Co., Ltd.) which have been established as the cells of the nervous system. The above neuve cells were grown in an incubator at 37° C. in the presence of 5% carbon dioxide gas exponentially, and then cultivated for a certain period of time together with the compounds of formula (I).
# A culture medium [composed of 45% of RPMI 1640 medium, 45% modified Eagle's medium (MEM) and 10% of fetal calf serum (FCS) and containing penicillin G sodium (100 units/ml) and streptomycin sulfate (100 microgram/ml)] containing neurobalstoma cell line GOTO in the logarithmic growth period was poured in an amount of 2 ml each into polystyrene dishes (35 mm; made by Corning Co.) so that the cell concentration was 2 to 6×10^4 cells per dish, and the cells were cultured for 1 to 2 days in a carbon dioxide gas incubator containing 5% of carbon dioxide gas in air at 37° C. Then, the culture fluid was removed, and 2 ml of a fresh serum-free culture fluid (consisting of 50% of RPMI medium and 50% of MEM medium and containing penicillin G sodium and streptomycin sulfate in the same amounts as above) was added. At the same time, a presterilized PBS solution (phosphate buffered saline) of each of the test compounds in various concentrations was added to each of the dishes. After culturing for 24 hours, the number of living cells was counted. Furthermore, the culture was photographed, and from the photos, the number and length of neurites per cell were measured. The numer of living cells was counted for 3 to 6 dishes by resistance to staining with erythrosine dye. The number and length of the neurites were measured with regard to 6 photos (more than 200 cells per photo).
# (§4) As a simple method of evaluation, the number of cells have neurites with a length equal to, or larger than, the long diameter of the cell was divided by the total number of cells.
# [4] = tested on: mouse neuroblastoma cell line neuro-2a; experiment: Activity on cell line neuro-2a (simple method); assay type: cell-based; settings: Table 2 neuro-2a Run No. 1, control 7.9
# Method: as §3, with “(I). […]” for “(I).”
# as §4
structure (smiles),measurement,setting,value
CN1Cc2nc(N3CCNCC3)ncc2C1=O [Compound 602],Cells having neurites with a length at least twice the long diameter of cell/total number of cells,[1]; 0.1 mM,6.2 ± 0.2%
same,Cells having neurites with a length at least twice the long diameter of cell/total number of cells,[1]; 3 mM,10.0 ± 0.9%
same,Number of dead animals/number of test animals,"mice; Table 7, 1000 mg/kg p.o.",0/5
same,Number of dead animals/number of test animals,"mice; Table 7, 1700 mg/kg p.o.",0/5
same,Number of dead animals/number of test animals,"mice; Table 7, 3000 mg/kg p.o.",3/5
same,LD50 at 24 h,"Acute toxicity, rat; Table 7, p.o.",> 1700 mg/kg
same,Number of dead animals/number of test animals,"rats; Table 7, 1700 mg/kg p.o.",0/5
Cn1ccc2nc(N3CCNCC3)ncc2c1=O [Compound 706],Number of neurites/cell (mean ± S.D.),"[2]; 0.1 μg/ml, *P <0.01",2.30 ± 0.75 neurites/cell
same,Number of cells,[2]; 0.1 μg/ml,3.81 × 10^4 /dish
same,Length of neurites (mean ± S.D.),"[2]; 0.1 μg/ml, *P <0.01",72.11 ± 26.58 μm/cell
same,Number of neurites/cell (mean ± S.D.),"[2]; 1 μg/ml, all *P <0.01",2.26 ± 0.82 neurites/cell
same,Number of cells,[2]; 1 μg/ml,4.12 × 10^4 /dish
same,Length of neurites (mean ± S.D.),"[2]; 1 μg/ml, all *P <0.01",63.24 ± 28.17 μm/cell
same,LD50 at 24 h,"Acute toxicity, mouse",550 to 1000 mg/kg
same,Number of dead animals/number of test animals,"mice; Table 6, 300 mg/kg p.o.",0/5
same,Number of dead animals/number of test animals,"mice; Table 6, 500 mg/kg p.o.",2/5
same,Number of dead animals/number of test animals,"mice; Table 6, 1000 mg/kg p.o.",4/5
same,Average of the proportions,[3],16.39%
same,LD50 at 24 h,"Acute toxicity, rat; Table 6, p.o.",550 to 1000 mg/kg
same,Number of dead animals/number of test animals,"rats; Table 6, 300 mg/kg p.o.",0/5
same,Number of dead animals/number of test animals,"rats; Table 6, 500 mg/kg p.o.",1/5
same,Number of dead animals/number of test animals,"rats; Table 6, 1000 mg/kg p.o.",3/5
same,Average of the proportions,[4]; 1 μg/ml,17.21%
same,Average of the proportions,[4]; 10 μg/ml,15.40%
